Results published in patent publication US6998244B1, “Cloning and expression of a novel 5-HT4 receptor” (Janssen Pharmaceutica N.V., priority 1999, dated 2006).

Key:
human 5-HT4(a) receptor [1] = biological target: T1, human 5-HT4(a) receptor (Homo sapiens, UniProt Q13639); test: Competition with […] [3H]GR113808 binding, membranes of transfected COS-7 cells; details: for pKi / Ki: Human 5-HT4 a receptor in Cos-7 cells, Cheng and Prusoff
T1 construct: expressed in transfected cells; host or cells: COS-7 cells, transient transfection with a pcDNA3 construct
T1 sequence (Q13639 1-387 isoform Q13639-2): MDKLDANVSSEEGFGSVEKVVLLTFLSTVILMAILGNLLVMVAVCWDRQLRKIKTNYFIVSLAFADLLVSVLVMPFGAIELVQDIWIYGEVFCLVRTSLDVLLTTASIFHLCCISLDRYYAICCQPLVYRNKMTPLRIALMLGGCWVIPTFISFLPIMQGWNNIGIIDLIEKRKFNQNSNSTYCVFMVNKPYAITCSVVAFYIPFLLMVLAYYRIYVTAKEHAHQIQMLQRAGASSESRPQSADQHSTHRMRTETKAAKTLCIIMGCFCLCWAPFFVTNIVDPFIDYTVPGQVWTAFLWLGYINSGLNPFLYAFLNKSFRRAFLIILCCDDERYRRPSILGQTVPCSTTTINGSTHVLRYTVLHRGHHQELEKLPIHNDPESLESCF

human 5-HT4(b) receptor [2] = biological target: T2, human 5-HT4(b) receptor (Homo sapiens, UniProt Q13639); test: as above; details: for pKi / Ki: Human 5-HT4 b receptor in Cos-7 cells, Cheng and Prusoff
T2 construct: expressed in transfected cells; host or cells: COS-7 cells, transient transfection with a pcDNA3 construct
T2 sequence (Q13639 whole entry): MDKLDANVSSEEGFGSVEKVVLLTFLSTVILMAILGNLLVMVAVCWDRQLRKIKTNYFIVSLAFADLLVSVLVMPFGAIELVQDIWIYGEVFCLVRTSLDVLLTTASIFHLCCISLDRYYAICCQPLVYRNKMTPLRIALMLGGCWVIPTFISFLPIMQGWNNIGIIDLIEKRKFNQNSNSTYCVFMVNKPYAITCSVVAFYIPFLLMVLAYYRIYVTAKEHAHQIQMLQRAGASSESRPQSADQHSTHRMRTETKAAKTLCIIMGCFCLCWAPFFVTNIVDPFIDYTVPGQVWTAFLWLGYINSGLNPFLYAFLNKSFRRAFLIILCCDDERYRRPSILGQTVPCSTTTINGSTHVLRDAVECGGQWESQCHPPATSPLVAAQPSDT

human 5-HT4(h) receptor [3] = biological target: T3, human 5-HT4(h) receptor (Homo sapiens, UniProt Q13639); test: as above; details: for pKi: Human 5-HT4 h receptor in Cos-7 cells, Cheng and Prusoff
T3 sequence (Q13639 1-402 isoform Q13639-6): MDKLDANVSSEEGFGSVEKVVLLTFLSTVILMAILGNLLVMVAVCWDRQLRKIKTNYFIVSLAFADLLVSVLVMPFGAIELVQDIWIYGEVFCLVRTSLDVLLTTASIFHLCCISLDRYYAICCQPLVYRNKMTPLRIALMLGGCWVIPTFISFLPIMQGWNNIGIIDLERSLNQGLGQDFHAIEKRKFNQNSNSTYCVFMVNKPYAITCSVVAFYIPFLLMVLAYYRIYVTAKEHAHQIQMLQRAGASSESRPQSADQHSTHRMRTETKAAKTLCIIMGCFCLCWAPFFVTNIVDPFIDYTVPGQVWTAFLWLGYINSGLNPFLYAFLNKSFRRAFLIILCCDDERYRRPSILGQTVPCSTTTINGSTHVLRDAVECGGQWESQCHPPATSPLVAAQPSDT
Description: Results are the mean of three independent experiments from three different transfections.
COS-7 cells were grown in DMEM supplemented with 10% fetal calf serum. A large scale plasmid preparation of 5-HT4(h)/pcDNA3 was made using the Qiagen large scale plasmid preparation kit.
The transfected COS-7 cells were cultured on 150 mm Petri dishes and washed twice with ice-cold phosphate-buffered saline. The cells were then scrapped from the plates with a cell scraper, suspended in 50 mM Tris-HCl buffer, pH 7.4, and harvested by centrifugation for 10 min at 16000 g. The pellet was resuspended in 5 mM Tris-HCl, pH 7.4, and homogenized with an Ultra Turax homogenizer; the resulting membranes were collected by centrifugation for 20 min at 25000 g. Membranes were stored at −70° C. in 50 mM Tris-HCl buffer, pH 7.4, at a protein concentration of 1 mg/ml. The Bradford protein assay was used for protein determination with bovine serum albumin as a standard.
The mixture was incubated 1 hour at 25° C.

human 5-HT4(a) receptor [4] = biological target: T1, human 5-HT4(a) receptor; test: cAMP formation in transiently transfected COS-7 cells (flashplate assay); assay type: cell-based; details: 5-HT4 variant a, n = 5, cAMP formation
Description: (§1) Results represent the increase of cAMP after stimulation by agonist since basal level has been removed. […] The efficacy and potency of the different agonists to trigger the cellular response was estimated and compared for the three different variants.
(§2) These experiments were done using the NEN adenylyl cyclase activation flashplate assay, according to the supplier. Cells were removed from the Petri dishes with 3 ml EDTA (0.04% w/v) and resuspended with phosphate buffered saline without Ca^2+ and Mg^2+. The cells were centrifuged at 1500 g for 5 minutes and the supernatants were removed. The pellet was resuspend in stimulation buffer and diluted to a concentration of 10^6 cells/ml, 50 μl thereof were added per well of the flashplate (50000 cells/well). Compounds were diluted in PBS containing 1 mM pargyline and 1 mM paroxetine, and 50 μl of the resulting mixture was added per well, followed by an incubation for 20 minutes at 370° C. […] After incubation for 24 h at room temperature, counting was done in a Topcount (Packard).

human 5-HT4(b) receptor [5] = biological target: T2, human 5-HT4(b) receptor; test: as above; assay type: cell-based; details: 5-HT4 variant b, n = 8, cAMP formation
Description: as §1, §2

[6] = system: COS-7 cells transfected with the empty vector; test: cAMP assay, negative control cells; assay type: cell-based; details: stimulation with 10^−6 M of each agonist
From the text: as §1, with “variants. […] No difference in the pEC50 was noticed. The cAMP assay has been performed also for COS-7 cells transfected with the empty vector as a negative control.” for “variants.”
These experiments were done using the NEN adenylyl cyclase activation flashplate assay, according to the supplier. Cells were removed from the Petri dishes with 3 ml EDTA (0.04% w/v) and resuspended with phosphate buffered saline without Ca^2+ and Mg^2+. The cells were centrifuged at 1500 g for 5 minutes and the supernatants were removed. The pellet was resuspend in stimulation buffer and diluted to a concentration of 10^6 cells/ml, 50 μl thereof were added per well of the flashplate (50000 cells/well). Compounds were diluted in PBS containing 1 mM pargyline and 1 mM paroxetine, and 50 μl of the resulting mixture was added per well, followed by an incubation for 20 minutes at […]. […] The experiment was stopped and a direct cAMP[^125I] detection assay was performed by adding 100 μl of detection mix per well. After incubation for 24 h at room temperature, counting was done in a Topcount (Packard).

human 5-HT4(h) receptor [7] = biological target: T3, human 5-HT4(h) receptor; test: cAMP formation in transiently transfected COS-7 cells (flashplate assay); assay type: cell-based; set-up: expressed in transfected cells; host or cells: COS-7 cells, transient transfection with 5-HT4(h)/pcDNA3
Description: as §1, §2

5-HT4(a) variant = biological target: T4, 5-HT4(a) variant (Homo sapiens, UniProt Q13639); test: Radioligand saturation binding, membranes of transfected COS-7 cells
T4 construct: expressed in transfected cells; host or cells: COS-7 cells, transient transfection with a pcDNA3 construct
T4 sequence (Q13639 1-387 isoform Q13639-2): as the sequence (Q13639 1-387 isoform Q13639-2) above
From the text: (§3) In order to compare the pharmacological properties of the 5-HT4(h) variant with those of the previously cloned 5-HT4(a) and b variant, the three corresponding pcDNA3 expression constructs were transiently transfected into COS cells. The receptors were investigated by radioligand binding assays on membrane preparations.

5-HT4(b) variant = biological target: T5, 5-HT4(b) variant (Homo sapiens, UniProt Q13639); test: as above
T5 construct: expressed in transfected cells; host or cells: COS-7 cells, transient transfection with a pcDNA3 construct
From the text: as §3

h 5-HT4(h) = biological target: T6, h 5-HT4(h) (Homo sapiens, UniProt Q13639); test: as above; details: h variant, 3 independent transfections
T6 construct: expressed in transfected cells; host or cells: COS-7 cells, transient transfection with 5-HT4(h)/pcDNA3
T6 sequence (Q13639 1-402 isoform Q13639-6): as the sequence (Q13639 1-402 isoform Q13639-6) above
From the text: as §3

[8] = system: COS-7 cells transfected with the vector alone; test: Radioligand binding, negative control cells; details: 3 independent transfections
From the text: The same result was obtained for the Bmax values found for the high affinity sites of the 2 reference 5-HT receptor variants a and b. […] Results are the mean of three independent transfections.

[9] = 5-HT4 variant h, n = 3, cAMP formation

COc1ccc2[nH]cc(CCN)c2c1 [5-MeOT]
pKi (human 5-HT4(a) receptor [1]): 6.08
pKi (human 5-HT4(b) receptor [2]): 6.13
pKi (human 5-HT4(h) receptor [3]): 6.1

NCCc1c[nH]c2ccc(O)cc12 [5HT, 5-hydroxytryptamine]
% of 5HT max (+/− SD) (human 5-HT4(a) receptor [4]): 100%
% of 5HT max (+/− SD) (human 5-HT4(b) receptor [5]): 100%
increase of the cAMP basal level [6]: no significant increase
% of 5HT max (+/− SD) (human 5-HT4(h) receptor [7]; [9]): 100%

COc1cc(N)c(Cl)cc1C(=O)NC1CCN(CCCOc2ccc(F)cc2)CC1OC (stereo not drawn) [Cisapride]
increase of the cAMP basal level [6]: no significant increase

Cn1cc(C(=O)OCC2CCN(CCNS(C)(=O)=O)CC2)c2ccccc21 [GR113808]
pKi (human 5-HT4(a) receptor [1]): 9.54
pKi (human 5-HT4(b) receptor [2]): 9.57
% of 5HT max (+/− SD) (human 5-HT4(a) receptor [4]): 0%
% of 5HT max (+/− SD) (human 5-HT4(b) receptor [5]): 0%
pKi (human 5-HT4(h) receptor [3]): 9.29
% of 5HT max (+/− SD) (human 5-HT4(h) receptor [7]; [9]): 54.6%
pEC50 (+/1 SD) (human 5-HT4(h) receptor [7]; [9]): 7.95
effect at the 5-HT4(h) variant (agonist/antagonist) (human 5-HT4(h) receptor [7]; in words): agonistic effect

CCOc1cc(N)c(Cl)cc1C(=O)NCC1CN(Cc2ccc(F)cc2)CCO1 (stereo not drawn) [Mosapride]
IC50 (human 5-HT4(a) receptor [1]): 331 nM
Ki (human 5-HT4(a) receptor [1]): 195 nM
IC50 (human 5-HT4(b) receptor [2]): 912 nM
Ki (human 5-HT4(b) receptor [2]): 661 nM
IC50 (human 5-HT4(h) receptor [3]): 282 nM
Ki (human 5-HT4(h) receptor [3]): 141 nM

COCCCN1CCC(NC(=O)c2cc(Cl)c(N)c3c2OCC3)CC1 [Prucalopride]
% of 5HT max (+/− SD) (human 5-HT4(a) receptor [4]): 118%
% of 5HT max (+/− SD) (human 5-HT4(b) receptor [5]): 117.36%
increase of the cAMP basal level [6]: no significant increase
% of 5HT max (+/− SD) (human 5-HT4(h) receptor [7]; [9]): 95%

CCCCN1CCC(COC(=O)c2cc(Cl)c(N)c3c2OCCO3)CC1 [SB204070]
pKi (human 5-HT4(a) receptor [1]): 10.15
pKi (human 5-HT4(b) receptor [2]): 10.04
pKi (human 5-HT4(h) receptor [3]): 10.38

CCCCCNC(=N)N/N=C/c1c[nH]c2ccc(OC)cc12 [SDZ-HTF919]
IC50 (human 5-HT4(a) receptor [1]): 8.32 nM
Ki (human 5-HT4(a) receptor [1]): 13.8 nM
IC50 (human 5-HT4(b) receptor [2]): 12.9 nM
Ki (human 5-HT4(b) receptor [2]): 8.13 nM
IC50 (human 5-HT4(h) receptor [3]): 35.5 nM
Ki (human 5-HT4(h) receptor [3]): 25.7 nM

Cn1cc(C(=O)OCC2CCN(CCNS(C)(=O)=O)CC2)c2ccccc21 [[^3H]GR113808]
Kd (5-HT4(a) variant): 0.14 nM
Kd (5-HT4(b) variant): 0.19 nM
Kd (h 5-HT4(h)): 0.24 nM
specific binding [8]: no specific binding
